Values of other authors, collected in US20230073516A1, “INTRAORAL FAST-DISINTEGRATING FORMULATION CONTAINING HEMP OIL EXTRACT OR HEMP POWDER EXTRACT AS RAW MATERIAL OF FORMULATION” (CTC SCIENCE INC., priority 2019, published 2023).

Details: absorbed while passing through the gastrointestinal tract

Compound: C=C(C)[C@@H]1CCC(C)=C[C@H]1c1c(O)cc(CCCCC)cc1O [cannabidiol]
- Bioavailability of cannabidiol: 13-19%
